{
  "source": "patent US12414948B2",
  "about": "“Methods” (INTRA-CELLULAR THERAPIES, INC., priority 2022, dated 2025)",
  "key": {"[1]": {"system": "hippocampal cytokine mRNA (Il1b, Il6, Tnfa, Il10)", "assay": "Hippocampal cytokine mRNA (qRT-PCR) after co-injection of LPS and lumateperone", "format": "in vivo, mouse", "conditions": "mice, 2 h, relative change normalized to control (Dct method)", "protocol": "(§1) All other reagents are obtained in the highest purity available from Sigma-Aldrich (St. Louis, MO) unless otherwise noted. […] Some rodents are given a cotreatment with a subcutaneous (SC) injection of lipopolysaccharide (LPS, 500 μg/kg; Sigma-Aldrich, ref #0127:B8) diluted in 0.9% injectable saline while control group animals receive injections of all vehicles matching the experimental conditions. […] On day 2, either no injection for naïve rats, or saline or LPS is injected (1 mg/kg, SC).\nAnimals. Adult, male C57BL/6 mice weighing 28-30 grams at the time of the experiment are housed in groups of 4 or 5 in small cages. Adult, male Sprague-Dawley rats weighing 175-200 grams at the time of arrival after shipping are housed in pairs. All animals are housed under standard laboratory housing conditions with a 12-hour light/dark cycle and ad libitum access to food and water.\nTissue Collection. […] Rats are euthanized 18 hours after LPS injection for sample collection. Hippocampi from mice and rats are rapidly dissected under RNAse-free conditions and placed in 1.5 mL Eppendorf tubes. When appropriate, samples are snap frozen in liquid nitrogen prior to storage at −80° C. until further analysis. Trunk blood is collected from mice into serum collection tubes, allowed to clot at room temperature for 1 hour, then centrifuged at 1,500 g for 10 minutes at 4° C.\n(§2) Quantitative Real-Time PCR. Mouse hippocampal tissue is homogenized with glass beads in 1 mL of TRIzol reagent using a BeadBeater (Biospec Products, Bartlesville, OK). Heavy phase-lock gel tubes enabled separation of phases following the addition of 400 μL chloroform to the sample and centrifugation at 12,000 rpm for 10 minutes at room temperature. RNA is extracted using Qiagen Rneasy kit (Qiagen, Hilden, Germany). For cDNA synthesis, 2 μg of total RNA is used (SuperScript IV Reverse Transcriptase; ThermoFisher Scientific, Waltham, MA). The purity and concentration of RNA is measured with a Nanodrop spectrophotometer; the optical density (OD) 260/280 and OD 260/230 are within 1.8-2.3. In the hippocampus, 4 key markers of pro- and anti-inflammatory cytokines and chemokines (Il1b: ID Mm00434228_m1, Tnfa: ID Mm00443258_m1, 116: ID Mm00446190_m1, and I110: ID Mm01288386_m1; ThermoFisher Scientific) are initially chosen for analysis (n=5-12 per group). In subsequent experiments, the transcripts for other markers of inflammation are chosen for analysis including Icam1 (ID Mm00516023_m1; a cell adhesion molecule involved in immune cell migration), Cldn5 (ID Mm00727012_s1; a tight junctions protein), colony stimulating factor 1 (Csf1: ID Mm00432686_m1; a factor that regulates microglia function) and its receptor Csf1r (ID Mm01266652_m1), and the nucleotide binding and oligomerization domain-like receptor family pyrin domain-containing 3 inflammasome complex (Nlrp3: Mm00840904_m1). Gapdh (ID Mm99999915_g1) is chosen as a housekeeping gene. QuantStudio 7 (ThermoFisher Scientific) is used for analyzing the plates (MicroAmp Optical 384-well plates; Applied Biosystems, Waltham, MA, and ThermoFisher Scientific) that are loaded with TaqMan Universal Master Mix II without uracil-DNA glycosylate in a 20 μl reaction volume using 100 ng cDNA per well. All mRNAs are measured by qRT-PCR on ABI Prism 7900HT system using TaqMan Gene Expression Assays. Ct values of genes of interest are normalized to that of the reference gene (Gapdh).\nSpecific cytokines are elevated in serum or plasma of patients with MDD and other psychiatric disorders. Here, the gene and protein expression of a subset of pro- and anti-inflammatory cytokines is measured in mouse brain in response to an inflammatory challenge using a single dose of LPS (500 μg/kg) to induce acute brain inflammation. […] The results are shown in Table 1A as relative change in mRNA levels for each cytokine gene (Il1b, Il6, Tnfa, Il10) normalized to the control group using the Dct method (n=5-12 per group): […]"}, "[2]": {"system": "hippocampal mRNA (Il1b, Il6, Tnfa, Il10, Icam1, Cldn5, Csf1)", "assay": "Hippocampal mRNA (qRT-PCR), delayed injection of lumateperone 30 minutes after LPS", "format": "in vivo, mouse", "conditions": "for Hippocampal mRNA expression (delayed injection) Cldn5 / Hippocampal mRNA expression (delayed injection) Csf1 / Hippocampal mRNA expression (delayed injection) Icam1: normalized to control", "protocol": "as §1\nas §2, with “The purity and concentration of RNA is measured with a Nanodrop spectrophotometer; the optical density (OD) 260/280 and OD 260/230 are within 1.8-2.3.” left out\nSamples are collected 1.5 hours later (i.e., 2 hours after LPS injection)."}, "[3]": {"conditions": "Luma 0.3 mg/kg IP co-injected with LPS 500 μg/kg SC"}, "[4]": {"conditions": "Luma 3 mg/kg IP co-injected with LPS 500 μg/kg SC"}, "[5]": {"conditions": "Luma 8 mg/kg IP co-injected with LPS 500 μg/kg SC"}, "[6]": {"conditions": "LPS 500 μg/kg SC-challenged mice, label LPS = LPS + vehicle, label Luma = Luma 3 mg/kg IP 30 min after LPS, 2 h after LPS"}, "[7]": {"conditions": "LPS 500 μg/kg SC-challenged mice, label LPS = LPS + vehicle, label Luma = Luma 3 mg/kg IP 30 min after LPS, 2 h after LPS, normalized to control (Dct)"}, "[8]": {"conditions": "mice, saline SC then Luma 3 mg/kg IP 30 min later (no LPS)"}, "[9]": {"conditions": "mice, saline SC then Luma 3 mg/kg IP 30 min later (no LPS), samples 1.5 h later, normalized to control (Dct)"}},
  "data": [
    {"compound": "CN1CCN2c3c(cccc31)[C@@H]1CN(CCCC(=O)c3ccc(F)cc3)CC[C@@H]12", "note": "[Luma, lumateperone]", "values": [
      {"measurement": "Hippocampal cytokine mRNA expression IL-6", "setting": "[1]; [3]", "result": 0.52},
      {"measurement": "Hippocampal cytokine mRNA expression IL-10", "setting": "[1]; [3]", "result": "−0.28"},
      {"measurement": "Hippocampal cytokine mRNA expression TNF-alpha", "setting": "[1]; [3]", "result": 0.43},
      {"measurement": "Hippocampal cytokine mRNA expression IL-1b", "setting": "[1]; [4]", "result": 0.85},
      {"measurement": "Hippocampal cytokine mRNA expression IL-6", "setting": "[1]; [4]", "result": 0.15},
      {"measurement": "Hippocampal cytokine mRNA expression TNF-alpha", "setting": "[1]; [4]", "result": "−0.09"},
      {"measurement": "Hippocampal cytokine mRNA expression IL-1b", "setting": "[1]; [5]", "result": 0.43},
      {"measurement": "Hippocampal cytokine mRNA expression IL-6", "setting": "[1]; [5]", "result": 0.16},
      {"measurement": "Hippocampal cytokine mRNA expression TNF-alpha", "setting": "[1]; [5]", "result": "−0.24"},
      {"measurement": "Hippocampal mRNA expression (delayed injection) Cldn5", "setting": "[2]; [6]", "result": 0.20},
      {"measurement": "Hippocampal mRNA expression (delayed injection) Csf1", "setting": "[2]; [6]", "result": "−0.11"},
      {"measurement": "Hippocampal cytokine mRNA expression (delayed injection) IL-6", "setting": "[2]; [7]", "result": "−0.10"},
      {"measurement": "Hippocampal cytokine mRNA expression (delayed injection) TNF-alpha", "setting": "[2]; [7]", "result": 0.34},
      {"measurement": "Hippocampal mRNA expression (delayed injection) Cldn5", "setting": "[2]; [8]", "result": 0.33},
      {"measurement": "Hippocampal mRNA expression (delayed injection) Csf1", "setting": "[2]; [8]", "result": 0.05},
      {"measurement": "Hippocampal mRNA expression (delayed injection) Icam1", "setting": "[2]; [8]", "result": 0.28},
      {"measurement": "Hippocampal cytokine mRNA expression (delayed injection) IL-1b", "setting": "[2]; [9]", "result": 0.90},
      {"measurement": "Hippocampal cytokine mRNA expression (delayed injection) IL-6", "setting": "[2]; [9]", "result": "−0.46"},
      {"measurement": "Hippocampal cytokine mRNA expression (delayed injection) TNF-alpha", "setting": "[2]; [9]", "result": "−0.31"}
    ]},
    {"compound": "lipopolysaccharide [LPS, reference compound]", "values": [
      {"measurement": "Hippocampal cytokine mRNA expression IL-1b", "setting": "[1]; LPS 500 μg/kg SC + vehicle", "result": 2.88},
      {"measurement": "Hippocampal cytokine mRNA expression IL-6", "setting": "[1]; LPS 500 μg/kg SC + vehicle", "result": 1.03},
      {"measurement": "Hippocampal cytokine mRNA expression IL-10", "setting": "[1]; LPS 500 μg/kg SC + vehicle", "result": 0.43},
      {"measurement": "Hippocampal cytokine mRNA expression TNF-alpha", "setting": "[1]; LPS 500 μg/kg SC + vehicle", "result": 1.75},
      {"measurement": "Hippocampal mRNA expression (delayed injection) Cldn5", "setting": "[2]; [6]", "result": "−0.63"},
      {"measurement": "Hippocampal mRNA expression (delayed injection) Csf1", "setting": "[2]; [6]", "result": 0.41},
      {"measurement": "Hippocampal mRNA expression (delayed injection) Icam1", "setting": "[2]; [6]", "result": 4.33},
      {"measurement": "Hippocampal cytokine mRNA expression (delayed injection) IL-1b", "setting": "[2]; [7]", "result": 2.89},
      {"measurement": "Hippocampal cytokine mRNA expression (delayed injection) IL-6", "setting": "[2]; [7]", "result": 1.10},
      {"measurement": "Hippocampal cytokine mRNA expression (delayed injection) IL-10", "setting": "[2]; [7]", "result": 1.88},
      {"measurement": "Hippocampal cytokine mRNA expression (delayed injection) TNF-alpha", "setting": "[2]; [7]", "result": 2.33}
    ]}
  ]
}
